This assay addresses T1, human RXFP1 (Homo sapiens, UniProt Q9HBX9).
T1 construct: expressed in transfected cells
T1 sequence (Q9HBX9 1-757): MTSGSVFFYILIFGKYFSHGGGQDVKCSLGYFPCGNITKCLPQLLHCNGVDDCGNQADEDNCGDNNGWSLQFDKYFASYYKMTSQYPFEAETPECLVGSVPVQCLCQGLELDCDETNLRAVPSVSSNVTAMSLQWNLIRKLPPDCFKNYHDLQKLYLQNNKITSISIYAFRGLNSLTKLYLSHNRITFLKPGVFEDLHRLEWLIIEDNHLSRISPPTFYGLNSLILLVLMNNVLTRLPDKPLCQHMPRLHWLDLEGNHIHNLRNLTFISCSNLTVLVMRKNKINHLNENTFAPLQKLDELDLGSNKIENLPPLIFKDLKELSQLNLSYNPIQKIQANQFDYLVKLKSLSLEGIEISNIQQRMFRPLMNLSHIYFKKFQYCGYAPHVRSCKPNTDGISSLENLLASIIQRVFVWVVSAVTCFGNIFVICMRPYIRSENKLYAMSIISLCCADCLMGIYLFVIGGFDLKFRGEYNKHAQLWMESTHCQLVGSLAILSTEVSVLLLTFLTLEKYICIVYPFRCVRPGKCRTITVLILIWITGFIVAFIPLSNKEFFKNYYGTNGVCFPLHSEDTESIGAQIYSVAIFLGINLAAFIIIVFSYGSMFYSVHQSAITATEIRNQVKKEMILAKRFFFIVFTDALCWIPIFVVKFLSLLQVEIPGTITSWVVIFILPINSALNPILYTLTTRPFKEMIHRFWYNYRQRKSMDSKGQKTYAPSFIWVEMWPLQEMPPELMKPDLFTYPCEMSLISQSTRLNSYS
The experiment in a line: hRXFP1 HEK293 cAMP assay (HTRF). The format is cell-based. Particulars: HEK293 cells stably expressing human RXFP1; 30 min at rt; intracellular cAMP by HTRF. In short, it runs like this:
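HEK293 cells stably expressing human RXFP1 treated 30 min at rt with compound (0.010 nM to 50 μM, 2% DMSO) in HBSS/HEPES buffer with 0.5 mM IBMX. Intracellular cAMP measured by HTRF (665/590 nm ratio) against a cAMP standard curve; potency fitted by 4-parameter logistic.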
In general terms: Changes in cAMP serve as a functional read-out for many G protein-coupled receptors.

pEC50: −log10 of the molar value.

Broadly, the pEC50 is the EC50 on a negative log10 scale, so that one unit is a factor of ten. High values mean a small EC50, low ones a large EC50.

On to `COc1ccc(C2=NC(C(=O)N3CC(C)(O)C3)CO2)cc1C(=O)Nc1c(C(=O)Nc2ccc(F)c(C(F)(F)F)c2)sc2cc(C(F)(F)F)ccc12` (stereo not shown) [Example 280, N-[4-fluoro-3-(trifluoromethyl)phenyl]-3-{5-[4-(3-hydroxy-3-methylazetidine-1-carbonyl)-4,5-dihydro-1,3-oxazol-2-yl]-2-methoxy-benzamido}-6-(trifluoromethyl)-1-benzothiophene-2-carboxamide], for which the pEC50 was 7.36.

`COc1ccc(C2CC2C(=O)N2CC(C(C)(C)O)C2)cc1C(=O)Nc1c(C(=O)Nc2ccc(F)c(C(F)(F)F)c2)sc2cc(C(F)(F)F)ccc12` (stereo not shown) [Example 165, N-[4-fluoro-3-(trifluoromethyl)phenyl]-3-(5-{2-[3-(2-hydroxypropan-2-yl)azetidine-1-carbonyl]cyclopropyl}-2-methoxy-benzamido)-6-(trifluoromethyl)-1-benzothiophene-2-carboxamide] had a pEC50 of 5.52.

As for `COc1ccc(C2=NCC3(CCCCC3)O2)cc1C(=O)Nc1c(C(=O)Nc2ccc(F)c(C(F)(F)F)c2)sc2cc(C(F)(F)F)ccc12` [Example 58, N-(4-fluoro-3-(trifluoromethyl)phenyl)-3-(2-methoxy-5-(1-oxa-3-azaspiro[4.5]dec-2-en-2-yl)benzamido)-6-(trifluoromethyl)benzo[b]thiophene-2-carboxamide], the pEC50 is 6.21.

With `COc1ccc(N2CCCC(C(=O)NCCO)C2)cc1C(=O)Nc1c(C(=O)Nc2ccc(F)c(C(F)(F)F)c2)sc2cc(C(F)(F)F)ccc12` (single isomer, unassigned) [Example 231, 1-(3-((2-((4-fluoro-3-(trifluoromethyl)phenyl)carbamoyl)-6-(trifluoromethyl)benzo[b]thiophen-3-yl)carbamoyl)-4-methoxyphenyl)-N-(2-hydroxyethyl) piperidine-3-carboxamide], the pEC50 was 5.77.

Compound `COc1ccc(N2CCC(NCCO)C2)cc1C(=O)Nc1c(C(=O)Nc2ccc(F)c(C(F)(F)F)c2)sc2cc(C(F)(F)F)ccc12` (stereo not shown) [Example 66, N-(4-fluoro-3-(trifluoromethyl)phenyl)-3-(5-(3-((2-hydroxyethyl)amino)pyrrolidin-1-yl)-2-methoxy-benzamido)-6-(trifluoromethyl) benzo[b] thiophene-2-carboxamide] had a pEC50 of 6.05.

Take `COc1ccc(N2CCCC(C(=O)NCC(C)(C)O)C2)cc1C(=O)Nc1c(C(=O)Nc2ccc(F)c(C(F)(F)F)c2)sc2cc(C(F)(F)F)ccc12` (single isomer, unassigned) [Example 7, 1-(3-((2-((4-fluoro-3-(trifluoromethyl)phenyl)carbamoyl)-6-(trifluoromethyl)benzo[b]thiophen-3-yl)carbamoyl)-4-methoxyphenyl)-N-(2-hydroxy-2-methylpropyl) piperidine-3-carboxamide]: the pEC50 is 6.18.

Consider `COc1ccc(-c2cc(C(NC(=O)C3CCOCC3)C(F)(F)F)ccc2F)cc1C(=O)Nc1c(C(=O)Nc2ccc(F)c(C(F)(F)F)c2)sc2cc(C(F)(F)F)ccc12` (single isomer, unassigned) [Example 20, N-(2,2,2-trifluoro-1-(6-fluoro-3′-((2-((4-fluoro-3-(trifluoromethyl)phenyl)carbamoyl)-6-(trifluoromethyl)benzo[b]thiophen-3-yl)carbamoyl)-4′-methoxy-[1,1′-biphenyl]-3-yl)ethyl)tetrahydro-2H-pyran-4-carboxamide], for which the pEC50 was 6.02.

`COc1ccc(C2CCN(C(=O)C(C)(C)CO)C2)cc1C(=O)Nc1c(C(=O)Nc2ccc(F)c(C(F)(F)F)c2)sc2cc(C(F)(F)F)ccc12` (single isomer, unassigned) [Example 150, N-(4-fluoro-3-(trifluoromethyl)phenyl)-3-(5-(1-(3-hydroxy-2,2-dimethyl-propanoyl)pyrrolidin-3-yl)-2-methoxy-benzamido)-6-(trifluoromethyl) benzo[b] thiophene-2-carboxamide] had a negative logarithm of the EC50 (pEC50) of 6.64.

Regarding `COc1ccc(-c2cccc(NS(C)(=O)=O)c2)cc1C(=O)Nc1c(C(=O)Nc2ccc(F)c(C(F)(F)F)c2)sc2cc(C(F)(F)F)ccc12` [Example 123, N-(4-fluoro-3-(trifluoromethyl)phenyl)-3-(4-methoxy-3′-(methylsulfon-amido)-[1,1′-biphenyl]-3-carboxamido)-6-(trifluoromethyl) benzo[b] thiophene-2-carboxamide], the pEC50 was 6.63.

In turn, `O=C(Nc1c(C(=O)Nc2ccc(F)c(C(F)(F)F)c2)sc2cc(C(F)(F)F)ccc12)c1cc(C2=NOC3COCC23)ccc1F` (stereo not shown) [Example 256, 3-(5-{3aH,4H,6H,6aH-furo[3,4-d][1,2]oxazol-3-yl}-2-fluorobenzamido)-N-[4-fluoro-3-(trifluoromethyl)phenyl]-6-(trifluoromethyl)-1-benzothiophene-2-carboxamide] had a pEC50 of 6.62.

In turn, `COc1ccc(C2CCN(C(=O)CO)C2)cc1C(=O)Nc1c(C(=O)Nc2ccc(F)c(C(F)(F)F)c2)sc2cc(C(F)(F)F)ccc12` (stereo not shown) [Example 141, N-(4-fluoro-3-(trifluoromethyl)phenyl)-3-(5-(1-(2-hydroxyacetyl)pyrrolidin-3-yl)-2-methoxy-benzamido)-6-(trifluoromethyl) benzo[b] thiophene-2-carboxamide] had a pEC50 of 6.40.

Compound `COc1ccc(C2CCC(C)(O)CC2)cc1C(=O)Nc1c(C(=O)Nc2ccc(F)c(C(F)(F)F)c2)sc2cc(C(F)(F)F)ccc12` (single isomer, unassigned) [Example 37, N-(4-fluoro-3-(trifluoromethyl)phenyl)-3-(5-(4-hydroxy-4-methylcyclohexyl)-2-methoxybenzamido)-6-(trifluoromethyl)benzo[b]thiophene-2-carboxamide] showed a pEC50 of 6.80.

Compound `COc1ccc(C2CCCN(C3COC3)C2)cc1C(=O)Nc1c(C(=O)Nc2ccc(F)c(C(F)(F)F)c2)sc2cc(C(F)(F)F)ccc12` (stereo not shown) [Example 84, N-(4-fluoro-3-(trifluoromethyl)phenyl)-3-(2-methoxy-5-(1-(oxetan-3-yl)piperidin-3-yl)benzamido)-6-(trifluoromethyl) benzo[b] thiophene-2-carboxamide] showed a pEC50 of 6.65.

For the compound `COc1ccc(C2=NOC3CC(NC(=O)CO)CC23)cc1C(=O)Nc1c(C(=O)Nc2ccc(F)c(C(F)(F)F)c2)sc2cc(C(F)(F)F)ccc12` (stereo not shown) [Example 261, N-[4-fluoro-3-(trifluoromethyl)phenyl]-3-{5-[5-(2-hydroxy-acetamido)-3aH,4H,5H,6H, 6aH-cyclopenta[d] [1,2]oxazol-3-yl]-2-methoxy-benzamido}-6-(trifluoromethyl)-1-benzothiophene-2-carboxamide], the pEC50 is 7.04.

The compound `COc1ccc(C2=NOC3CN(C(=O)CO)CC23)cc1C(=O)Nc1c(C(=O)Nc2ccc(F)c(C(F)(F)F)c2)sc2cc(C(F)(F)F)ccc12` (single isomer, unassigned) [Example 242, N-(4-fluoro-3-(trifluoromethyl)phenyl)-3-(5-(5-(2-hydroxyacetyl)-3a,5,6,6a-tetrahydro-4H-pyrrolo[3,4-d]isoxazol-3-yl)-2-methoxy-benzamido)-6-(trifluoromethyl) benzo[b] thiophene-2-carboxamide] showed a pEC50 of 8.01.

As for `COc1ccc(S(=O)(=O)N2CCC[C@@H](N)C2)cc1C(=O)Nc1c(C(=O)Nc2ccc(F)c(C(F)(F)F)c2)sc2cc(C(F)(F)F)ccc12` [Example 30, (R)-3-(5-((3-aminopiperidin-1-yl)sulfonyl)-2-methoxybenzamido)-N-(4-fluoro-3-(trifluoromethyl)phenyl)-6-(trifluoromethyl) benzo[b]thiophene-2-carboxamide], the pEC50 was 5.60.

With `COc1ccc(C2CCCN(CC(=O)N(C)C)C2)cc1C(=O)Nc1c(C(=O)Nc2ccc(F)c(C(F)(F)F)c2)sc2cc(C(F)(F)F)ccc12` (single isomer, unassigned) [Example 101, 3-(5-(1-(2-(dimethylamino)-2-oxoethyl)piperidin-3-yl)-2-methoxy-benzamido)-N-(4-fluoro-3-(trifluoromethyl)phenyl)-6-(trifluoromethyl) benzo[b] thiophene-2-carboxamide], the pEC50 was 5.35.

With `COc1ccc(C2CCCN(CC(N)=O)CC2)cc1C(=O)Nc1c(C(=O)Nc2ccc(F)c(C(F)(F)F)c2)sc2cc(C(F)(F)F)ccc12` (single isomer, unassigned) [Example 70, 3-(5-(1-(2-amino-2-oxoethyl)azepan-4-yl)-2-methoxy-benzamido)-N-(4-fluoro-3-(trifluoromethyl)phenyl)-6-(trifluoromethyl) benzo[b] thiophene-2-carboxamide], the pEC50 was 7.33.

`COc1ccc(C2CCCNC2)cc1C(=O)Nc1c(C(=O)Nc2ccc(F)c(C(F)(F)F)c2)sc2cc(C(F)(F)F)ccc12` (single isomer, unassigned) [Example 77, N-(4-fluoro-3-(trifluoromethyl)phenyl)-3-(2-methoxy-5-(piperidin-3-yl)benzamido)-6-(trifluoromethyl) benzo[b] thiophene-2-carboxamide] showed a pEC50 of 6.33.
